Data: US20210123061A1, “METHODS AND COMPOSITIONS FOR TREATING INFLAMMATORY DISEASE OR DISORDER” (THE BRIGHAM AND WOMEN'S HOSPITAL, INC., priority 2018, published 2021)

B1: Ribosomal S6 Kinase-1 (RSK1), recombinant (protein)
chain: MEQDPKPPRLRLWALIPWLPRKQRPRISQTSLPVPGPGSGPQRDSDEGVLKEISITHHVKAGSEKADPSHFELLKVLGQGSFGKVFLVRKVTRPDSGHLYAMKVLKKATLKVRDRVRTKMERDILADVNHPFVVKLHYAFQTEGKLYLILDFLRGGDLFTRLSKEVMFTEEDVKFYLAELALGLDHLHSLGIIYRDLKPENILLDEEGHIKLTDFGLSKEAIDHEKKAYSFCGTVEYMAPEVVNRQGHSHSADWWSYGVLMFEMLTGSLPFQGKDRKETMTLILKAKLGMPQFLSTEAQSLLRALFKRNPANRLGSGPDGAEEIKRHVFYSTIDWNKLYRREIKPPFKPAVAQPDDTFYFDTEFTSRTPKDSPGIPPSAGAHQLFRGFSFVATGLMEDDGKPRAPQAPLHSVVQQLHGKNLVFSDGYVVKETIGVGSYSECKRCVHKATNMEYAVKVIDKSKRDPSEEIEILLRYGQHPNIITLKDVYDDGKHVYLVTELMRGGELLDKILRQKFFSEREASFVLHTIGKTVEYLHSQGVVHRDLKPSNILYVDESGNPECLRICDFGFAKQLRAENGLLMTPCYTANFVAPEVLKRQGYDEGCDIWSLGILLYTMLAGYTPFANGPSDTPEEILTRIGSGKFTLSGGNWNTVSETAKDLVSKMLHVDPHQRLTAKQVLQHPWVTQKDKLPQSQLSHQDLQLVKGAMAATYSALNSSKPTPQLKPIESSILAQRRVRKLPSTTL

Target: T1, Signal transducer and activator of transcription 1 (STAT1)
T1 chain: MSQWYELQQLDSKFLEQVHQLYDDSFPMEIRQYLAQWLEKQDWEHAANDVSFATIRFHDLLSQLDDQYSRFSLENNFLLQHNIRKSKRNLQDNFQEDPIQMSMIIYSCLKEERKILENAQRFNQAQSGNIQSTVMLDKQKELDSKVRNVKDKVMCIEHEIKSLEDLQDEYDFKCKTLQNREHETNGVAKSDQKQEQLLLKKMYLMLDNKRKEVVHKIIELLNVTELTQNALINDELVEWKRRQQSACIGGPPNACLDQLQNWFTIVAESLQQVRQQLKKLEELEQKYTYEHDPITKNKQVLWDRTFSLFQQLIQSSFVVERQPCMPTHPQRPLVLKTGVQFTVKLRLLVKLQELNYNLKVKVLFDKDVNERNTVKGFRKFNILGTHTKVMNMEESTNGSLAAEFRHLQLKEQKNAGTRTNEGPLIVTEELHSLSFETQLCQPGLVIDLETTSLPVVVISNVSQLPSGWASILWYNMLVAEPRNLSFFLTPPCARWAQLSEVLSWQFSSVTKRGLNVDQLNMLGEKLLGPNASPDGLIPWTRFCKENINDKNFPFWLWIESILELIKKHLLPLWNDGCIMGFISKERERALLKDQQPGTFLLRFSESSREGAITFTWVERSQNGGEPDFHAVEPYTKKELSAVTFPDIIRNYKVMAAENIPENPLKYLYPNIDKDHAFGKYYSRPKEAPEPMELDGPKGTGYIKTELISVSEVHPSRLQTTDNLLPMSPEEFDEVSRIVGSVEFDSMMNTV
Conditions: not given
In the case of B1, the “phosphorylation of STAT1 at Ser727 in vitro (kinase reaction, immunoblot)” value is reported as “RSK1 is capable of phosphorylating STAT1 at Ser727 in vitro”.

Test system: RSK1 (RPS6KA1) gene expression
Conditions: FIG. 20; cited from earlier work
For C=CCn1c(=O)c2cnc(Nc3ccc(N4CCN(C)CC4)cc3)nc2n1-c1cccc(C(C)(C)O)n1 [MK-1775], the “RSK1 expression effect under various conditions” value is given as “U937-specific effect”.

Same assay, conditions: Table 1; pert_type trt_cp = small molecule, trt_sh = shRNA; cited from earlier work
In the case of CN(C)C(=O)c1cccc(-c2cccc(-c3nc(C(=O)NC4CCCCC4)cc4c3[C@@H](CCO)N([S@+]([O-])C(C)(C)C)C4)c2)c1 [BRD-K08663380], the “RSK1 (agents that alter RSK1 expression)” value is listed as −0.65. For O=C1[C@H](Cc2ccc(O)cc2)N2C(=O)CCN(C(=O)NCc3ccccc3)[C@H]2CN1Cc1cccc2ccccc12 [BRD-K73261812], the “RSK1 (agents that alter RSK1 expression)” value is given as −0.97. In the case of C[S+]([O-])CCCCN=C=S (stereo not shown) [sulforaphane], the “RSK1 (agents that alter RSK1 expression)” value is listed as −0.50. For Oc1cccc(-c2nc(N3CCOCC3)c3oc4ncccc4c3n2)c1 [PI-103], the “RSK1 (agents that alter RSK1 expression)” value is given as −0.54. In the case of CCNC(=O)c1noc(-c2cc(C(C)C)c(O)cc2O)c1-c1ccc(CN2CCOCC2)cc1 [NVP-AUY922], the “RSK1 (agents that alter RSK1 expression)” value is listed as −1.23. In the case of c1ccc2c(-c3cnn4cc(-c5ccc(N6CCNCC6)cc5)cnc34)ccnc2c1 [LDN-193189], the “RSK1 (agents that alter RSK1 expression)” value is given as −1.38. In the case of C=C[C@](C)(O)CC/C=C(\C)C(=O)O[C@H]1[C@H](O)[C@@H](O)[C@H](O[C@@](C)(C=C)CC/C=C(\CO)C(=O)O[C@H]2C[C@]3(C(=O)O[C@@H]4O[C@H](CO)[C@@H](O)[C@H](O)[C@H]4O[C@@H]4O[C@@H](C)[C@H](O[C@@H]5O[C@@H](CO)[C@H](O)[C@H]5O)[C@@H](O[C@@H]5O[C@H](CO)[C@@H](O)[C@H](O)[C@H]5O)[C@H]4O)[C@H](O)C[C@]4(C)C(=CC[C@@H]5[C@@]6(C)CC[C@H](O[C@@H]7O[C@H](CO[C@@H]8O[C@H](C)[C@H](O)[C@H](O)[C@H]8O[C@@H]8OC[C@@H](O)[C@H](O)[C@H]8O)[C@@H](O)[C@H](O)[C@H]7NC(C)=O)C(C)(C)[C@@H]6CC[C@]54C)[C@@H]3CC2(C)C)O[C@@H]1C [avicin-g], the “RSK1 (agents that alter RSK1 expression)” value is listed as −1.17. For CC(C)C[C@@H](C(=O)N[C@H](C(=O)OC1CCCC1)c1ccccc1)[C@H](O)C(=O)NO [tosedostat, αS-[[(2R)-2-[(1S)-1-hydroxy-2-(hydroxyamino)-2-oxoethyl]-4-methyl-1-oxopentyl]amino]-benzeneacetic acid, cyclopentyl ester], the “RSK1 (agents that alter RSK1 expression)” value is listed as −0.96. For C/C=C/C/C=C/CCC(=O)[C@H]1O[C@H]1C(N)=O [cerulenin, (2R,3S)-3-[(4E,7E)-1-Oxo-4,7-nonadien-1-yl]-2-oxiranecarboxamide], the “RSK1 (agents that alter RSK1 expression)” value is listed as −1.40. In the case of FC(F)c1nc2ccccc2n1-c1nc(N2CCOCC2)nc(N2CCOCC2)n1 [ZSTK-474], the “RSK1 (agents that alter RSK1 expression)” value is given as −0.73. For CCCC[C@@H](C)/C=C(C)/C=C(\C)C(=O)NC1=C[C@@](O)(/C=C/C=C/C=C/C(=O)NC2=C(O)CCC2=O)C2O[C@@H]2C1=O (stereo partly drawn) [manumycin-a, N-[(1S,5S,6R)-5-hydroxy-5-[(1E,3E,5E)-7-[(2-hydroxy-5-oxo-1-cyclopenten-1-yl)amino]-7-oxo-1,3,5-heptatrien-1-yl]-2-oxo-7-oxabicyclo [4.1.0]hept-3-en-3-yl]-2E,4E,6R-trimethyl,2,4-decadienamide], the “RSK1 (agents that alter RSK1 expression)” value is given as −1.48. For CC(C(=O)Nc1cccc(/N=C/c2c(O)ccc3ccccc23)c1)c1ccccc1 (stereo not shown) [salermide], the “RSK1 (agents that alter RSK1 expression)” value is listed as −0.98. In the case of CC1=NN(c2ccc(C(=O)O)cc2)C(=O)/C1=C/c1ccc(-c2cc(C)c(C)cc2[N+](=O)[O-])o1 [BRD-K68548958], the “RSK1 (agents that alter RSK1 expression)” value is listed as −0.99.

Same assay, conditions: Table 2; cited from earlier work
In the case of C=CCNC1=C2C[C@@H](C)C[C@H](OC)[C@H](O)[C@@H](C)/C=C(\C)[C@H](OC(N)=O)[C@@H](OC)/C=C\C=C(/C)C(=O)NC(=CC1=O)C2=O [tanespimycin, 17-N-allylamino-17-demethoxygeldanamycin], the “RPS6KA1 (small molecules that inhibit RSK1 expression)” value is listed as −1.17. For CC(C)C[C@@H](C(=O)N[C@H](C(=O)OC1CCCC1)c1ccccc1)[C@H](O)C(=O)NO [tosedostat, αS-[[(2R)-2-[(1S)-1-hydroxy-2-(hydroxyamino)-2-oxoethyl]-4-methyl-1-oxopentyl]amino]-benzeneacetic acid, cyclopentyl ester], the “RPS6KA1 (small molecules that inhibit RSK1 expression)” value is given as −0.96. For C/C=C/C/C=C/CCC(=O)[C@H]1O[C@H]1C(N)=O [cerulenin, (2R,3S)-3-[(4E,7E)-1-Oxo-4,7-nonadien-1-yl]-2-oxiranecarboxamide], the “RPS6KA1 (small molecules that inhibit RSK1 expression)” value is given as −1.40. In the case of CCCC[C@@H](C)/C=C(C)/C=C(\C)C(=O)NC1=C[C@@](O)(/C=C/C=C/C=C/C(=O)NC2=C(O)CCC2=O)C2O[C@@H]2C1=O (stereo partly drawn) [manumycin-a, N-[(1S,5S,6R)-5-hydroxy-5-[(1E,3E,5E)-7-[(2-hydroxy-5-oxo-1-cyclopenten-1-yl)amino]-7-oxo-1,3,5-heptatrien-1-yl]-2-oxo-7-oxabicyclo [4.1.0]hept-3-en-3-yl]-2E,4E,6R-trimethyl,2,4-decadienamide], the “RPS6KA1 (small molecules that inhibit RSK1 expression)” value is given as −1.48. For CC(C(=O)Nc1cccc(/N=C/c2c(O)ccc3ccccc23)c1)c1ccccc1 (stereo not shown) [salermide], the “RPS6KA1 (small molecules that inhibit RSK1 expression)” value is given as −0.98.

Test system: RSK1 (S230p) phosphorylation site
Conditions: MCF7 cell line; P100 dataset; cited from earlier work
In the case of CN[C@@H]1C[C@H]2O[C@@](C)([C@@H]1OC)n1c3ccccc3c3c4c(c5c6ccccc6n2c5c31)C(=O)NC4 [Staurosporine], the “modulation of RSK1-S230p phosphorylation” value is listed as “modulated”.

Same assay, conditions: PC3 cell line; P100 dataset; cited from earlier work
In the case of O=C(c1ccc(C(=O)N2CCC(N3CCCC3)CC2)c(Nc2ccccc2)c1)N1CCC(N2CCCC2)CC1 [UNC-1215], the “modulation of RSK1-S230p phosphorylation” value is listed as “modulated”.

Same assay, conditions: YAPC cell line; P100 dataset; cited from earlier work
In the case of O=C(CCCCCCC(=O)Nc1ccccc1)NO [vorinostat], the “modulation of RSK1-S230p phosphorylation” value is listed as “modulated”. In the case of Cc1c[nH]c(-c2cnc(NCCNc3ccc(C#N)cn3)nc2-c2ccc(Cl)cc2Cl)n1 [CHIR-99021], the “modulation of RSK1-S230p phosphorylation” value is given as “modulated”. For C=C1[C@@H](O)[C@@H]2O[C@]3(CC[C@H](/C=C/[C@@H](C)[C@@H]4CC(C)=C[C@@]5(O[C@H](C[C@@](C)(O)C(=O)O)CC[C@H]5O)O4)O3)CC[C@H]2O[C@@H]1[C@@H](O)C[C@H](C)[C@H]1O[C@@]2(CCCCO2)CC[C@H]1C [okadaic acid], the “modulation of RSK1-S230p phosphorylation” value is listed as “modulated”.
